From article PMC11858715 (Molecules, 2025)
No end group written: not given here.

Experiments:
[1] = molecular target: S2 (YIYRNYPDF), sense peptide surrogate of AtxA neurotoxic site (Vipera ammodytes ammodytes, UniProt P00626); assay: biochemical; assay type: binding; settings: 100% DMSO; 25 °C; read-out: KD (σ)
[2] = molecular target: S1 (GMMILG), sense peptide surrogate of AtxA neurotoxic site (Vipera ammodytes ammodytes, UniProt P00626); assay: biochemical; assay type: binding; settings: 100% DMSO; 25 °C; read-out: KD (σ)

Row | Substance | Kd [1] | Kd [2]
1 | INISIVGVK [S2A1, Ile-Asn-Ile-Ser-Ile-Val-Gly-Val-Lys] | 1.1 µM | –
2 | SHHYEP [S1A1, Ser-His-His-Tyr-Glu-Pro] | – | 4.9 µM
3 | SHHYSP [S1A2, Ser-His-His-Tyr-Ser-Pro] | – | 1.4 µM
4 | VNISVIGIK [S2A2, Val-Asn-Ile-Ser-Val-Ile-Gly-Ile-Lys] | 8.9 µM | –
